Laboratory results taken from patent publication US7368428B2, “Compositions and methods for restoring sensitivity of tumor cells to antitumor therapy and inducing apoptosis” (A&G Pharmaceutical, Inc., priority 2003, dated 2008).
Where a name gives a salt, the structure may show the parent alone.

Key:
[1] = tested on: tamoxifen resistant MCF-7 cells; assay: PARP cleavage Western blot (apoptosis) in tamoxifen resistant MCF-7 cells; type: cell-based; conditions: agent alone, FIG. 8
Source text: (§1) The present invention also provides methods of inducing apoptosis comprising administering a GP88 antagonist to a tumor cell. Apoptosis can be induced in all tumor cell types including, but not limited to, neuroblastoma, glioblastoma, astrocytoma, sarcomas, and cancers of the prostate, blood, cerebrospinal fluid, liver, kidney, breast, head and neck, pharynx, thyroid, pancreas, stomach, colon, colorectal, uterus, cervix, bone, bone marrow, testes, brain, neural tissue, ovary, skin, and lung. Apoptosis can be detected in tumor cells by a variety of techniques including, but not limited to for example, detection of Bcl-2 levels or detection of the PARP cleavage product, DNA ladder, and production of apoptotic cells. PARP or poly(ADP-ribose) polymerase is a nuclear binding protein that detects DNA strand breaks and participates in DNA repair. Cleavage of PARP is a hallmark of caspases-dependent apoptosis. When apoptosis takes place, the 116 kDa intact PARP is cleaved in two fragments, 85 kDa and 25 kDa. […]
(§2) MCF-7 cells or O4 cells were seeded at a density of 7×10^5 cells in 60-mm dish in DMEM/F12 supplemented with 5% FBS. […] Intact and cleaved forms of PARP were detected using a mouse monoclonal anti-PARP antibody from Oncogene Research (San Diego, Calif.). α-Actin was used for normalizing the loading.

Bcl-2 [2] = assay: Bcl-2 mRNA transcript RT-PCR in O4 cells; type: cell-based; conditions: even at elevated doses, FIG. 6
Source text: (§3) Apoptosis is controlled by the ratio of apoptotic to anti-apoptotic factors, particularly Bcl-2, bcl-xl and bax. […] Zhang et al., Clin. Cancer Res. 5: 2971-7, 1999; Cameron et al., Eur. J. Cancer 36: 845-51, 2000. Alteration of Bcl-2 expression levels changes the bax:Bcl-2 ratio and alters susceptibility to apoptosis. O4 cells are MCF-7 cells transformed with a GP88 expression construct to overexpress GP88. Serrero et al., Proc. Natl. Acad. Sci. U.S.A. 97: 3993-8, 2000.
(§4) GP88 overexpression blocks down-regulation of Bcl-2 mRNA transcript in response to tamoxifen treatment. MCF-7 cells and MCF-7 cells overexpressing GP88 (O4 cells) were treated with 0 to 2 μm tamoxifen. FIG. 6. 5 μg of total RNA was reverse transcribed into single strand cDNA by Super Script II (BRL, Gaithersburg, Md.) using 20 ng random hexamer (Gibco) as primer. The reverse transcription reaction was carried out for 1 h at 42 C in […] Tris-HCl (pH8.3), 2.5 mM MgCl2, 50 mM KCl, DTT 0.01 M and dNTP (each 0.5 mM). A total of 30-35 PCR cycles depending on the gene amplified were performed, followed by electrophoresis on 1% agarose gel. The specific primer pairs used were as follows: for glyceraldehyde 3-phosphate dehydrogenase (GAPDH): forward primer 5′ […] 3′ (SEQ ID NO: 9), reverse primer, 5′ […] 3′ (SEQ ID NO: 10); for Bcl-2: forward primer 5′ […] 3′ (SEQ ID NO: 11), reverse primer 5′ […] […]

[3] = tested on: O4 cells (GP88 overexpressing cells); assay: tumor growth of O4 cells in ovariectomized nude mice; type: in vivo
Source text: Athymic ovariectomized female nude mice were implanted with an estradiol pellet one day before being injected (S.C) with either MCF-7 cells or O4 cells. After 10 days when the tumors were visible, the mice received either a placebo pellet or tamoxifen pellet. Tumor growth was monitored for 45 days. At the end of the experiments, mice were euthanized and the tumors were excised and evaluated. […] In contrast, tumor volume in mice with tumor induced by O4 cells and untreated with tamoxifen increased from 75 mm^3 to 150 mm^3 in 45 days. Tamoxifen treatment of tumors overexpressing GP88 increased tumor volume more than 4 times while tumor volume of untreated GP88 overexpressing tumors increased by 2 times.

Bcl-2 [4] = assay: Bcl-2 mRNA transcript RT-PCR in MCF-7 cells; type: cell-based; conditions: all concentrations tested (0 to 2 μm tamoxifen), FIG. 6
Source text: as §3, §4

[5] = tested on: MCF-7 breast carcinoma cells; assay: PARP cleavage Western blot (apoptosis) in MCF-7 cells; type: cell-based; conditions: FIG. 5; for 85 kDa PARP cleavage product: agent alone
Source text: Tamoxifen-induced apoptosis is blocked in tumor cells overexpressing GP88. FIG. 5 is a western blot measuring the level of the PARP cleavage product (85 kDa band) in MCF-7 breast carcinoma cells treated with tamoxifen, tamoxifen+GP88, tamoxifen+estradiol, GP88, and a control. […] Tamoxifen-induced apoptosis was blocked by treatment with estradiol, a compound known to block tamoxifen-induced apoptosis, as shown by the decrease in the 85 kDa band in the lane labeled “Tamoxifen+estradiol.” Tamoxifen-induced apoptosis was blocked by treatment with GP88 to the same extent as treatment by estradiol.
as §1, with “kDa. Detection of intact and cleaved forms of PARP by Western Blot analysis with anti-PARP antibody has been established as an apoptosis assay. Duriez et al., Biochem Cell Biol. 75: 337-49, 1997.” for “kDa.”
as §2

cyclin D1 = cyclin D1 expression (FIG. 11 lanes); type: cell-based
Source text: Tumors progress through various stages of growth and maturation leading to increased mobility of the tumor through the body. Therefore, tumor cells can be targeted at several stages during the progression of tumor growth and maturation. For example, GP88 antagonists inhibit tumor cell growth and proliferation. For example, GP88 induces expression of cyclin D1, a cell cycle regulatory protein involved in the growth and proliferation of tumor cells.

With `CC/C(=C(\c1ccccc1)c1ccc(OCCN(C)C)cc1)c1ccccc1` [tamoxifen, tamoxifen citrate] the “cleavage of PARP” value [1] was “does not cleave PARP”, the Bcl-2 transcript (Bcl-2 [2]) was “failed to down regulate” and the “increase of tumor volume” value ([3]; O4 cell tumors (overexpressing GP88), tamoxifen treatment, 45 days) was “more than 4 times”. For the same compound, the “tumor volume after 45 days” value ([3]; O4 cell tumors, ovariectomized nude mice with estradiol pellet, tamoxifen pellet, after 45 days, FIG. 9) was “about 225 mm^3”, the “tumor volume at start” value ([3]; O4 cell tumors, ovariectomized nude mice with estradiol pellet, tamoxifen pellet, start value, FIG. 9) was 50 mm^3 and the Bcl-2 transcript (Bcl-2 [4]) was “induced down-regulation”. The “85 kDa PARP cleavage product” value [5] was “significantly increased”.
In the case of “GP88: 88 kDa glycoprotein growth factor, epithelin/granulin precursor”, the “expression of cyclin D1” value (cyclin D1) is reported as “stimulates”, the “tamoxifen-induced apoptosis (85 kDa PARP cleavage product)” value ([5]; agent added together with tamoxifen) is reported as “blocked” and the “85 kDa PARP cleavage product” value [5] is reported as “not in the presence of GP88”.
